From patent US20230263758A1, “COMPOSITIONS OF EDTA HAVING ACTIVITY AGAINST PLANKTONIC AND BIOFILM CELLS OF CLINICALLY RELEVANT PATHOGENS” (SterileCare Inc., priority 2022, published 2023) come the findings set out here.

The test system of one assay is Proteus mirabilis ON153. Put plainly: Checkerboard FBEC index, 48-h biofilm. In kind it is cell-based. The conditions noted are these: P. mirabilis ON153 biofilm; EDTA + chlorhexidine HCl.
In another assay the test system is MRSA ON184. The assay can be described thus: Checkerboard FBEC index, 48-h biofilm. In kind it is cell-based, Staphylococcus aureus. The conditions noted are these: EDTA + chlorhexidine HCl.
Assay [1] relates to Pseudomonas aeruginosa SK1. Put plainly: MBC/MFC determination. The format is cell-based. The conditions noted are these: P. aeruginosa SK1; agent alone. The method, then:
(§1) An assay was made using a minimum inhibitory concentration (MIC) and minimum bactericidal concentration (MBC) and minimum fungicidal concentration (MFC) determination. The MIC was determined by the micro broth dilution method in 96-well plates. Serial two-fold dilutions of tetrasodium EDTA (from 2% to 0.015%), ethanol (from 50% to 0.1%) and chlorhexidine HCl (from 100 μg/mL to 0.025 μg/mL) were prepared in MH broth with a final volume of 90 μL per well. A 10 μL containing 1×10^5 bacterial cells or 2×10^3 fungal cells were added to each well. The inoculated plates were covered with a lid, sealed with Parafilm, and incubated for 24 h at 37° C. with slight rocking on a tilting platform shaker. After incubation, the optical density at 600 nm (OD 600) of the cultures in each well was measured using an xMark™ Microplate Absorbance Spectrophotometer (Bio-Rad). […] MBCs and MFCs were determined by transferring 100 μL from each well with no apparent growth onto appropriate agar plates, followed by incubation for 24 h at 37° C.

The subject of another assay is C. albicans ON47. Put plainly: MIC, micro broth dilution. In kind it is cell-based, Candida albicans. The conditions noted are these: agent alone. The method, then:
as §1
(In broth dilution the organism is exposed to a series of concentrations in liquid medium.)

Structures can show the parent of a compound that is named as a salt.

Experimental for MRSA ON184: (§2) In step (4), microtiter plates are incubated at 37° C. for 24 h. then (6), after incubation, the bacterial and fungal cells were dislodged from the pegs into the recovery medium described above.
(§3) Three 10-μL aliquots, for a total of 30 μL from each well of recovery medium, were spotted on MH agar plates and incubated for 24 h at 37° C. […] The FBEC determination is a modification of the FICI.
Experimental for Proteus mirabilis ON153: as §2, §3

On to `[H]/N=C(\N/C(=N/[H])NCCCCCCNC(=N)NC(=N)Nc1ccc(Cl)cc1)Nc1ccc(Cl)cc1` [Chlorhexidine HCl, chlorhexidine HCl, reference compound], for which, in the assay with Proteus mirabilis ON153, the “Biofilm eradication concentration in combination (FBEC)” value was 3.125 µg/mL.

Regarding `O=C([O-])CN(CCN(CC(=O)[O-])CC(=O)[O-])CC(=O)[O-].[Na+].[Na+].[Na+].[Na+]` [EDTA, tetrasodium EDTA], the “Biofilm eradication concentration in combination (FBEC)” value in the assay on MRSA ON184 is reported as 0.031 % w/v. Also, in assay [1], the MBC/MFC is 1 % w/v. In addition, the MIC with C. albicans ON47 worked out at 1 % w/v.
